Reference: patent publication US20250320224A1 (DOMAIN THERAPEUTICS, priority 2022, published 2025)
Structures can show the parent of a compound that is named as a salt.

Target: T1, human PAR-2 (hPAR-2) receptor (Homo sapiens, UniProt P55085)
T1 construct: expressed in HEK-293 cells in an endogenous manner; endogenous in cells; host or cells: HEK-293
T1 sequence (P55085 26-397): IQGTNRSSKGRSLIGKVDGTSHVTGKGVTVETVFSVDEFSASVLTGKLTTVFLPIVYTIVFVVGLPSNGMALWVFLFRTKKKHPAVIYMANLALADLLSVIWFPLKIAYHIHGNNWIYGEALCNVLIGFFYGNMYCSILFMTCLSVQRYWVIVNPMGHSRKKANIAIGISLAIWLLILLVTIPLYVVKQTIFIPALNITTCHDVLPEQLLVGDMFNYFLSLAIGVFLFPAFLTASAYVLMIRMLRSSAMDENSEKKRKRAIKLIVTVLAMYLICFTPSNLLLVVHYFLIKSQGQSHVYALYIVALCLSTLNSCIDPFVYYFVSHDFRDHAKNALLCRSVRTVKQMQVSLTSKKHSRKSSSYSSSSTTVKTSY
Experiment: In vitro human PAR-2 functional antagonist activity using calcium assays
Format: cell-based
Conditions: hPAR-2 endogenously expressed in HEK-293 cells; stimulated by 2-Furoyl-LIGRLO-NH2 peptide; Fluo4AM intracellular calcium, FLIPR Tetra
Protocol: Example 283: In Vitro Human PAR-2 Functional Antagonist Activity Using Calcium Assays
Examples of the present invention were tested successively for their agonist and antagonist activities on human PAR-2 (hPAR-2) receptor expressed in HEK-293 cells in an endogenous manner. Compounds exert agonist activity if, by themselves in absence of the 2-Furoyl-LIGRLO-NH2 peptide (selective hPAR-2 agonist), they activate PAR-2; they exert antagonist activity if they decrease the action of the 2-Furoyl-LIGRLO-NH2 peptide on the receptor. The assay used to determine compound activity is based on calcium measurement.
Cell Culture: HEK-293 cells were maintained in Dulbecco's Modified Eagle's Medium supplemented with 10% Foetal Calf Serum, 1% Penicillin/Streptomycin at 37° C./5% CO2. Flasks for tests (F75) are seeded with 6e+06 cells 24 h before the experiment at 37° C./5% CO2.
Calcium assay: Receptor activity was detected by changes in intracellular calcium measured using the fluorescent Ca^2+ sensitive dye, Fluo4AM (Molecular Probes).
The day of the assay, medium was replaced by assay buffer (HBSS 1× (Gibco 14175-053), Hepes 20 mM, MgSO4-7H2O 1 mM, Na2CO3 3.3 mM, CaCl2—2H2O 2.6 mM, 0.5% bovine serum albumin (BSA), Probenecid 2.5 mM, 0.1 mg/mL Pluronic Acid) and complemented with 1 μM Fluo4AM and cells were incubated during 1:30 h at 37° C.
Cells were then detached, resuspended in assay buffer and seeded in 384 wells, transparent-flat bottom black walled plates (2e+04 cells per well). Plates were incubated at +22° C. for 20 min. Compounds stock solutions were prepared in 100% DMSO and dilutions in test buffer were carried out in polypropylene plates with a digital dispenser (D300e, Tecan). Compounds were added to the cells and intracellular Ca^2+ measurements were collected at the same time on FLIPR Tetra® (Molecular Devices) with specific filters (Exc: 470-495 nm/Em: 515-575 nm).
Agonist and antagonist activities of compounds were consecutively evaluated on the same cell plate. Agonist activity was first measured after 10 min incubation with the compound alone. Then, cells were stimulated by an […] of the 2-Furoyl-LIGRLO-NH2 peptide and fluorescence was recorded for an additional 5 min. EC50 of the 2-Furoyl-LIGRLO-NH2 peptide was the concentration giving 80% of the maximal 2-Furoyl-LIGRLO-NH2 response. Agonist activities are evaluated in comparison to basal signals evoked by assay buffer or maximal 2-Furoyl-LIGRLO-NH2 response. […] Antagonist activities are evaluated in comparison to basal signals evoked by assay buffer or EC50 of 2-Furoyl-LIGRLO-NH2 alone.

| Compound | IC50 [nM] |
| --- | --- |
| CCN1CCN(C(=O)c2ccc3c(n2)C(C)(C)CN3c2ccc(Cl)c(F)c2)C(C)(C)C1=O [Example 19, 4-(1-(4-chloro-3-fluorophenyl)-3,3-dimethyl-2,3-dihydro-1H-pyrrolo[3,2-b]pyridine-5-carbonyl)-1-ethyl-3,3-dimethylpiperazin-2-one] | < 500 |
| CC1(C)CN(c2ccc(Cl)c(F)c2)c2ccc(C(=O)N3CCOCC3(C)C)nc21 [Example 20, (1-(4-chloro-3-fluorophenyl)-3,3-dimethyl-2,3-dihydro-1H-pyrrolo[3,2-b]pyridin-5-yl)(3,3-dimethylmorpholino)methanone] | < 500 |
| CC(C)(C)OC(=O)N1CCN(C(=O)c2ccc3c(n2)C(C)(C)CN3c2ccc(Cl)c(F)c2)C(C)(C)C1 [Example 21, tert-butyl 4-(1-(4-chloro-3-fluorophenyl)-3,3-dimethyl-2,3-dihydro-1H-pyrrolo[3,2-b]pyridine-5-carbonyl)-3,3-dimethylpiperazine-1-carboxylate] | < 500 |
| CCN1CCN(C(=O)c2ccc3c(n2)C(C)(C)CN3c2ccc(Cl)c(F)c2)C(C)(C)C1 [Example 23, (1-(4-chloro-3-fluorophenyl)-3,3-dimethyl-2,3-dihydro-1H-pyrrolo[3,2-b]pyridin-5-yl)(4-ethyl-2,2-dimethylpiperazin-1-yl)methanone hydrochloride] | 500 to 10000 |
| CC1(C)CN(c2ccc(Cl)c(F)c2)c2ccc(C(=O)N3CCN(C(=O)CCC(=O)O)CC3(C)C)nc21 [Example 26, 4-(4-(1-(4-chloro-3-fluorophenyl)-3,3-dimethyl-2,3-dihydro-1H-pyrrolo[3,2-b]pyridine-5-carbonyl)-3,3-dimethylpiperazin-1-yl)-4-oxobutanoic acid] | 500 to 10000 |
| CCOC(=O)CCCC(=O)N1CCN(C(=O)c2ccc3c(n2)C(C)(C)CN3c2ccc(Cl)c(F)c2)C(C)(C)C1 [Example 27, ethyl 5-(4-(1-(4-chloro-3-fluorophenyl)-3,3-dimethyl-2,3-dihydro-1H-pyrrolo[3,2-b]pyridine-5-carbonyl)-3,3-dimethylpiperazin-1-yl)-5-oxopentanoate] | < 500 |
| CC1(C)CN(c2ccc(Cl)c(F)c2)c2ccc(C(=O)N3CCN(C(=O)CCCC(=O)O)CC3(C)C)nc21 [Example 28, 5-(4-(1-(4-chloro-3-fluorophenyl)-3,3-dimethyl-2,3-dihydro-1H-pyrrolo[3,2-b]pyridine-5-carbonyl)-3,3-dimethylpiperazin-1-yl)-5-oxopentanoic acid] | 500 to 10000 |
| Cc1nc(N2CCN(C(=O)c3ccc4c(n3)C(C)(C)CN4c3ccc(Cl)c(F)c3)C(C)(C)C2)ncc1C(=O)O [Example 39, 2-(4-(1-(4-chloro-3-fluorophenyl)-3,3-dimethyl-2,3-dihydro-1H-pyrrolo[3,2-b]pyridine-5-carbonyl)-3,3-dimethylpiperazin-1-yl)-4-methylpyrimidine-5-carboxylic acid hydrochloride] | < 500 |
| CC1(C)CN(c2ccc(Cl)c(F)c2)c2ccc(C(=O)N3CCN(c4ncc(C(=O)O)cn4)CC3(C)C)nc21 [Example 41, 2-(4-(1-(4-chloro-3-fluorophenyl)-3,3-dimethyl-2,3-dihydro-1H-pyrrolo[3,2-b]pyridine-5-carbonyl)-3,3-dimethylpiperazin-1-yl)-pyrimidine-5-carboxylic acid hydrochloride] | < 500 |
| CC1(C)CN(c2ccc(Cl)c(F)c2)c2ccc(C(=O)N3CCN(c4nc(C(=O)O)cs4)CC3(C)C)nc21 [Example 43, 2-(4-(1-(4-chloro-3-fluorophenyl)-3,3-dimethyl-2,3-dihydro-1H-pyrrolo[3,2-b]pyridine-5-carbonyl)-3,3-dimethylpiperazin-1-yl)thiazole-4-carboxylic acid] | < 500 |
| Cc1cc(N2CCN(C(=O)c3ccc4c(n3)C(C)(C)CN4c3ccc(Cl)c(F)c3)C(C)(C)C2)nc(C)c1C(=O)O [Example 45, 6-(4-(1-(4-chloro-3-fluorophenyl)-3,3-dimethyl-2,3-dihydro-1H-pyrrolo[3,2-b]pyridine-5-carbonyl)-3,3-dimethylpiperazin-1-yl)-2,4-dimethylnicotinic acid] | < 500 |
| C[C@H](CC(=O)O)N(C)C(=O)c1ccc2c(n1)C(C)(C)CN2c1ccc(Cl)c(F)c1 [Example 47, (R)-3-(1-(4-chloro-3-fluorophenyl)-N,3,3-trimethyl-2,3-dihydro-1H-pyrrolo[3,2-b]pyridine-5-carboxamido)butanoic acid] | 500 to 10000 |
| CN(C(=O)c1ccc2c(n1)C(C)(C)CN2c1ccc(Cl)c(F)c1)C1(C(N)=O)CC1 [Example 48, N-(1-carbamoylcyclopropyl)-1-(4-chloro-3-fluorophenyl)-N,3,3-trimethyl-2,3-dihydro-1H-pyrrolo[3,2-b]pyridine-5-carboxamide] | 500 to 10000 |

Now from value to compound:

| IC50 [nM] | Compound |
| --- | --- |
| 500 to 10000 | CC1(C)CN(c2ccc(Cl)c(F)c2)c2ccc(C(=O)N3CCNCC3(C)C)nc21 [Example 22, (1-(4-chloro-3-fluorophenyl)-3,3-dimethyl-2,3-dihydro-1H-pyrrolo[3,2-b]pyridin-5-yl)(2,2-dimethylpiperazin-1-yl)methanone hydrochloride] |
| 500 to 10000 | CC(=O)N1CCN(C(=O)c2ccc3c(n2)C(C)(C)CN3c2ccc(Cl)c(F)c2)C(C)(C)C1 [Example 24, 1-(4-(1-(4-chloro-3-fluorophenyl)-3,3-dimethyl-2,3-dihydro-1H-pyrrolo[3,2-b]pyridine-5-carbonyl)-3,3-dimethylpiperazin-1-yl)ethan-1-one] |
| 500 to 10000 | CN1CNC(=O)C12CCN(C(=O)c1ccc3c(n1)C(C)(C)CN3c1ccc(Cl)c(F)c1)CC2 [Example 29, 8-(1-(4-chloro-3-fluorophenyl)-3,3-dimethyl-2,3-dihydro-1H-pyrrolo[3,2-b]pyridine-5-carbonyl)-1-methyl-1,3,8-triazaspiro[4.5]decan-4-one] |
| < 500 | CC1(C)CN(c2ccc(Cl)c(F)c2)c2ccc(C(=O)N3C[C@@H]4[C@@H](CC(=O)O)[C@@H]4C3)nc21 [Example 31, 2-((1R,5S,6S)-3-(1-(4-chloro-3-fluorophenyl)-3,3-dimethyl-2,3-dihydro-1H-pyrrolo[3,2-b]pyridine-5-carbonyl)-3-azabicyclo[3.1.0]hexan-6-yl)acetic acid] |
| 500 to 10000 | CC1(C)CN(c2ccc(Cl)c(F)c2)c2ccc(C(=O)N3CCC(C(=O)O)CC3)nc21 [Example 33, 1-(1-(4-chloro-3-fluorophenyl)-3,3-dimethyl-2,3-dihydro-1H-pyrrolo[3,2-b]pyridine-5-carbonyl)piperidine-4-carboxylic acid] |
| 500 to 10000 | CC1(C)CN(c2ccc(Cl)c(F)c2)c2ccc(C(=O)N3CCC(CC(=O)O)CC3)nc21 [Example 35, 2-(1-(1-(4-chloro-3-fluorophenyl)-3,3-dimethyl-2,3-dihydro-1H-pyrrolo[3,2-b]pyridine-5-carbonyl)piperidin-4-yl)acetic acid] |
| 500 to 10000 | CO[C@H]1CN(C(=O)c2ccc3c(n2)C(C)(C)CN3c2ccc(Cl)c(F)c2)CC[C@H]1CC(=O)O [Example 37, 2-((3R,4S)-1-(1-(4-chloro-3-fluorophenyl)-3,3-dimethyl-2,3-dihydro-1H-pyrrolo[3,2-b]pyridine-5-carbonyl)-3-methoxypiperidin-4-yl)acetic acid] |
